{
  "source": "patent US20080145499A1",
  "about": "“Method for treating fruit or vegetables with phosphorous ions and corresponding compositions” (priority 2006, published 2008)",
  "key": {"P. expansum": {"tested_on": "P. expansum", "test": "Natural P. expansum infections in organic Elstar apples", "type": "in vivo", "text": "2—In vivo Study of the Activity of Phosphonic Acid (Kphos) on P. expansum Infections in Apples"}, "[1]": {"tested_on": "strain of Penicillium digitatum resistant to imazalil", "test": "Valencia oranges inoculated with Penicillium digitatum resistant to imazalil", "type": "in vivo", "details": "52° C., 2 minutes", "experimental": "Valencia oranges inoculated with a strain of Penicillium digitatum resistant to imazalil were treated at 52° C. and were in contact for 2 minutes with: • 300 ppm imazalil; • 3,000 ppm potassium phosphite • the two products mixed in proportions of 300 ppm imazalil and 3,000 ppm potassium phosphite."}, "P. Digitatum [2]": {"tested_on": "P. Digitatum", "test": "Navel oranges damaged and inoculated with P. digitatum, PA with Bioxeda and thermotherapy", "type": "in vivo", "details": "18 days, 48° C. 2 min", "experimental": "3—Efficacy of PA and Thermotherapy on P. digitatum Infections in Oranges\nIn this experiment, the oranges were damaged then inoculated with P. Digitatum (500,000 sp/mL) and treated 15 hours later; they were stored at 5° C."}, "P. Digitatum [3]": {"tested_on": "P. Digitatum", "test": "Natural P. digitatum infections in Navel oranges, comparison with three fungicides", "type": "in vivo", "details": "Thermotherapy + phosphonic acid 2,000 ppm; SPC 3 days at ambient temperature", "text": "4—Efficacy of PA on P. digitatum Infections in Oranges. Comparison with a Mixture of Three Fungicides. All Treatments Were Combined with Thermotherapy"}, "P. Digitatum [4]": {"tested_on": "P. Digitatum", "experimental": "5—Efficacy of PA on Natural P. digitatum Infections in Oranges Combined with Thermotherapy\n(§1) A new experiment which took place under conditions very similar to those in real life was carried out: natural infections, storage in cold conditions, simulation of storage periods (SPC)."}, "oranges": {"tested_on": "oranges", "details": "PA up to 4,000 ppm, with thermotherapy", "experimental": "as §1"}, "P. expansum spores": {"tested_on": "P. expansum spores", "text": "1—In vitro Study of the Activity of Phosphonic Acid on P. expansum"}, "Penicillium digitatum": {"tested_on": "Penicillium digitatum", "test": "Washington oranges inoculated with Penicillium digitatum, eugenol/potassium phosphite", "type": "in vivo", "experimental": "Washington oranges inoculated with Penicillium digitatum came into contact with a eugenol/potassium phosphite solution containing 1,100 ppm of eugenol and 1,600 ppm of potassium phosphite for 2 minutes at 38° C. and 48° C. The treated fruit was kept at 7° C. and then examined after 9 and 18 days. The fruit was compared with fruit treated with only eugenol in the same conditions and with inoculated fruits that had not been treated."}, "[5]": {"details": "3,000 ppm potassium phosphite, tests 1-4"}},
  "note": "Values joined by “and” are separate entries in the source; they are usually repeats but may differ in a detail not shown here. Identical values can stand only once. Like-named read-outs stand apart in the source and are kept apart here.",
  "data": [
    {"compound": "N#Cc1c[nH]cc1-c1cccc2c1OC(F)(F)O2", "note": "[Fluidoxonil]", "values": [
      {"measurement": "% apples with symptoms", "setting": "P. expansum; 200 ppm, 2001-2002, 90 days", "value": 1.1, "unit": "%"},
      {"measurement": "% apples with symptoms", "setting": "P. expansum; 200 ppm, 2001-2002, 180 days", "value": 4.9, "unit": "%"},
      {"measurement": "% apples with symptoms", "setting": "P. expansum; 200 ppm, 2002-2003, 90 days", "value": 4.0, "unit": "%"},
      {"measurement": "% apples with symptoms", "setting": "P. expansum; 200 ppm, 2002-2003, 180 days", "value": 7.0, "unit": "%"}
    ]},
    {"compound": "C=CCOC(Cn1ccnc1)c1ccc(Cl)cc1Cl", "note": "(stereo not shown) [Imazalil, imazalil, reference compound]", "values": [
      {"measurement": "Average % of decayed fruit", "setting": "[1]; 300 ppm imazalil", "value": 42.5, "unit": "%"}
    ]},
    {"compound": "O=[PH](O)O", "note": "[PA, Phosphonic acid]", "values": [
      {"measurement": "rate of decay, times lower in the presence of PA", "setting": "P. Digitatum [2]; Bioxeda + PA versus Bioxeda", "value": 2.3, "unit": "times"},
      {"measurement": "Oranges with symptoms", "setting": "P. Digitatum [2]; eugenol 1.8 g/L + PA 1,000 ppm (Kphos), stored at 5° C.", "value": 26, "unit": "%"},
      {"measurement": "Oranges with symptoms 12 D 5 0C = 3 D SPC (1)", "setting": "P. Digitatum [3]", "value": 0.5},
      {"measurement": "% oranges with symptoms 15 D 5° C. + 5 D SPC", "setting": "P. Digitatum [4]; 2,000 ppm, no thermotherapy", "value": 6.0, "unit": "%"},
      {"measurement": "efficacy", "setting": "P. Digitatum [4]; 4,000 ppm combined with thermotherapy", "value": 73.5, "unit": "%"},
      {"measurement": "% oranges with symptoms 15 D 5° C. + 5 D SPC", "setting": "P. Digitatum [4]; 4,000 ppm, no thermotherapy", "value": 5.1, "unit": "%"},
      {"measurement": "% oranges with symptoms 15 D 5° C. + 5 D SPC", "setting": "P. Digitatum [4]; Thermotherapy (50° C. 3 min) + 2,000 ppm", "value": 4.0, "unit": "%"},
      {"measurement": "% oranges with symptoms 15 D 5° C. + 5 D SPC", "setting": "P. Digitatum [4]; Thermotherapy (50° C. 3 min) + 4,000 ppm", "value": 2.7, "unit": "%"},
      {"measurement": "phytotoxicity", "setting": "oranges", "value": "No phytotoxicity"},
      {"measurement": "Germinated spores", "setting": "P. expansum spores; 1,000 ppm (Kphos), 22° C., 24 hours", "value": 27},
      {"measurement": "Germinated spores", "setting": "P. expansum spores; 1,000 ppm (Kphos), 22° C., 48 hours", "value": 34},
      {"measurement": "Germinated spores", "setting": "P. expansum spores; 1,000 ppm (Kphos), 50° 2 min, 24 hours", "value": 0},
      {"measurement": "Germinated spores", "setting": "P. expansum spores; 1,000 ppm (Kphos), 50° 2 min, 48 hours", "value": 21},
      {"measurement": "Germinated spores", "setting": "P. expansum spores; 4,000 ppm (Kphos), 22° C., 24 hours", "value": 11},
      {"measurement": "Germinated spores", "setting": "P. expansum spores; 4,000 ppm (Kphos), 22° C., 48 hours", "value": 11},
      {"measurement": "Germinated spores", "setting": "P. expansum spores; 4,000 ppm (Kphos), 50° 2 min, 24 hours", "value": 0},
      {"measurement": "Germinated spores", "setting": "P. expansum spores; 4,000 ppm (Kphos), 50° 2 min, 48 hours", "value": 0},
      {"measurement": "activity of PA", "setting": "P. expansum spores; ambient temperature, even at 4,000 ppm", "value": "partial"},
      {"measurement": "% apples with symptoms", "setting": "P. expansum; 1,000 ppm - 50° C. 2 min, 2001-2002, 90 days", "value": 0.0, "unit": "%"},
      {"measurement": "% apples with symptoms", "setting": "P. expansum; 1,000 ppm - 50° C. 2 min, 2001-2002, 180 days", "value": 4.7, "unit": "%"},
      {"measurement": "% apples with symptoms", "setting": "P. expansum; 1,000 ppm - 50° C. 2 min, 2002-2003, 90 days", "value": 0.0, "unit": "%"},
      {"measurement": "% apples with symptoms", "setting": "P. expansum; 1,000 ppm - 50° C. 2 min, 2002-2003, 180 days", "value": 6.3, "unit": "%"},
      {"measurement": "% apples with symptoms", "setting": "P. expansum; 1,000 ppm, 2001-2002, 90 days after treatment, 2° C.", "value": 3.1, "unit": "%"},
      {"measurement": "% apples with symptoms", "setting": "P. expansum; 1,000 ppm, 2001-2002, 180 days after treatment, 2° C.", "value": 13.1, "unit": "%"},
      {"measurement": "% apples with symptoms", "setting": "P. expansum; 1,000 ppm, 2002-2003, 90 days after treatment, 2° C.", "value": 4.9, "unit": "%"},
      {"measurement": "% apples with symptoms", "setting": "P. expansum; 1,000 ppm, 2002-2003, 180 days after treatment, 2° C.", "value": 11.1, "unit": "%"},
      {"measurement": "activity in vivo", "setting": "P. expansum; PA at ambient temperature on P. expansum in apples", "value": "~0"}
    ]},
    {"compound": "Cc1cc(C)nc(Nc2ccccc2)n1", "note": "[Pyrimethanil]", "values": [
      {"measurement": "% apples with symptoms", "setting": "P. expansum; 250 ppm, 2001-2002, 90 days", "value": 4.1, "unit": "%"},
      {"measurement": "% apples with symptoms", "setting": "P. expansum; 250 ppm, 2001-2002, 180 days", "value": 16.2, "unit": "%"},
      {"measurement": "% apples with symptoms", "setting": "P. expansum; 250 ppm, 2002-2003, 90 days", "value": 4.0, "unit": "%"},
      {"measurement": "% apples with symptoms", "setting": "P. expansum; 250 ppm, 2002-2003, 180 days", "value": 19.0, "unit": "%"},
      {"measurement": "% apples with symptoms", "setting": "P. expansum; 500 ppm, 2001-2002, 90 days", "value": 3.2, "unit": "%"},
      {"measurement": "% apples with symptoms", "setting": "P. expansum; 500 ppm, 2001-2002, 180 days", "value": 21.3, "unit": "%"},
      {"measurement": "% apples with symptoms", "setting": "P. expansum; 500 ppm, 2002-2003, 90 days", "value": 0.0, "unit": "%"},
      {"measurement": "% apples with symptoms", "setting": "P. expansum; 500 ppm, 2002-2003, 180 days", "value": 14.0, "unit": "%"}
    ]},
    {"compound": "C=CCc1ccc(O)c(OC)c1", "note": "[eugenol, reference compound]", "values": [
      {"measurement": "percentages of decayed fruit", "setting": "Penicillium digitatum; eugenol 1,100 ppm, 2 minutes at 38° C., kept at 7° C., after 9 days", "value": 12, "unit": "%"},
      {"measurement": "percentages of decayed fruit", "setting": "Penicillium digitatum; eugenol 1,100 ppm, 2 minutes at 38° C., kept at 7° C., after 18 days", "value": 73, "unit": "%"},
      {"measurement": "percentages of decayed fruit", "setting": "Penicillium digitatum; eugenol 1,100 ppm, 2 minutes at 48° C., kept at 7° C., after 9 days", "value": 4, "unit": "%"},
      {"measurement": "percentages of decayed fruit", "setting": "Penicillium digitatum; eugenol 1,100 ppm, 2 minutes at 48° C., kept at 7° C., after 18 days", "value": 60, "unit": "%"}
    ]},
    {"compound": "potassium phosphite", "values": [
      {"measurement": "percentages of decayed fruit", "setting": "Penicillium digitatum; potassium phosphite, 38° C., after 9 days", "value": 14, "unit": "%"},
      {"measurement": "percentages of decayed fruit", "setting": "Penicillium digitatum; potassium phosphite, 38° C., after 18 days", "value": 76, "unit": "%"},
      {"measurement": "percentages of decayed fruit", "setting": "Penicillium digitatum; potassium phosphite, 48° C., after 9 days", "value": 3, "unit": "%"},
      {"measurement": "percentages of decayed fruit", "setting": "Penicillium digitatum; potassium phosphite, 48° C., after 18 days", "value": 44, "unit": "%"},
      {"measurement": "Average % of decayed fruit", "setting": "[1]; 3,000 ppm potassium phosphite", "value": 42.5, "unit": "%"},
      {"measurement": "% of decayed fruit", "setting": "[1]; [5]", "value": "50% and 60% and 30%"},
      {"measurement": "Number of fruit decayed", "setting": "[1]; [5]", "value": "5 and 6 and 3"},
      {"measurement": "Number of fruit unaffected", "setting": "[1]; [5]", "value": "5 and 4 and 7"}
    ]}
  ]
}
